Tests used:
Type in all cases: functional, cell-based
[1] = target: T1, Retinoic acid receptor beta (Homo sapiens, UniProt P10826); test: Agonist activity at RARbeta-LBD expressed in HEK293 cells assessed as Gal4-DBD interaction by cellular mammalian one hybrid assay
T1 sequence (P10826 whole entry): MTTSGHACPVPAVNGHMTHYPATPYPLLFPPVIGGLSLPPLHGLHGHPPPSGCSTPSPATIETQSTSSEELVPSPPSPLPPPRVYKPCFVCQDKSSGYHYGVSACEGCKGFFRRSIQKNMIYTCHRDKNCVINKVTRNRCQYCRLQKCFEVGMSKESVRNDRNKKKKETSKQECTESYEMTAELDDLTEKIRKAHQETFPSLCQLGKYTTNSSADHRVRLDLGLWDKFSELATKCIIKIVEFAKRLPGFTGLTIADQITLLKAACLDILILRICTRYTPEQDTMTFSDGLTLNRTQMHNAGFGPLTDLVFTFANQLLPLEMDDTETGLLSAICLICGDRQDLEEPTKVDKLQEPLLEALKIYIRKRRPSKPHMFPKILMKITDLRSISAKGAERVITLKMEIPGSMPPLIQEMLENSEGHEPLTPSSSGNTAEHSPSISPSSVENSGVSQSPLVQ

[2] = target: T2, Oxysterols receptor LXR-beta (Homo sapiens, UniProt P55055); test: Agonist activity at LXRbeta-LBD expressed in HEK293 cells assessed as Gal4-DBD interaction by cellular mammalian one hybrid assay
T2 sequence (P55055 whole entry): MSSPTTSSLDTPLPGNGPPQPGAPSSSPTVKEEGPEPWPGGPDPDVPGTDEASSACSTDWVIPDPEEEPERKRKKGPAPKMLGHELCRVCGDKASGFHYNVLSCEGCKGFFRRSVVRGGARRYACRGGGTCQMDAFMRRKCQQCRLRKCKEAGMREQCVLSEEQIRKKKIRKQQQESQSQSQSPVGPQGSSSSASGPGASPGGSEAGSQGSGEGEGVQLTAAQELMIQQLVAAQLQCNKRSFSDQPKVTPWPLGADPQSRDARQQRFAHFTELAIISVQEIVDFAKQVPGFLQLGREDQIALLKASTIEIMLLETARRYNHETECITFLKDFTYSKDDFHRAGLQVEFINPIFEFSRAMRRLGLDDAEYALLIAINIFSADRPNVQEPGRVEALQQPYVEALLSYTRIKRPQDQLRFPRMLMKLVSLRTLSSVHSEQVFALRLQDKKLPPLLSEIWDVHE

[3] = target: T3, Mineralocorticoid receptor (Homo sapiens, UniProt P08235); test: Agonist activity at mineralocorticoid receptor-LBD expressed in HEK293 cells assessed as Gal4-DBD interaction by cellular mammalian one hybrid assay
T3 sequence (P08235 whole entry): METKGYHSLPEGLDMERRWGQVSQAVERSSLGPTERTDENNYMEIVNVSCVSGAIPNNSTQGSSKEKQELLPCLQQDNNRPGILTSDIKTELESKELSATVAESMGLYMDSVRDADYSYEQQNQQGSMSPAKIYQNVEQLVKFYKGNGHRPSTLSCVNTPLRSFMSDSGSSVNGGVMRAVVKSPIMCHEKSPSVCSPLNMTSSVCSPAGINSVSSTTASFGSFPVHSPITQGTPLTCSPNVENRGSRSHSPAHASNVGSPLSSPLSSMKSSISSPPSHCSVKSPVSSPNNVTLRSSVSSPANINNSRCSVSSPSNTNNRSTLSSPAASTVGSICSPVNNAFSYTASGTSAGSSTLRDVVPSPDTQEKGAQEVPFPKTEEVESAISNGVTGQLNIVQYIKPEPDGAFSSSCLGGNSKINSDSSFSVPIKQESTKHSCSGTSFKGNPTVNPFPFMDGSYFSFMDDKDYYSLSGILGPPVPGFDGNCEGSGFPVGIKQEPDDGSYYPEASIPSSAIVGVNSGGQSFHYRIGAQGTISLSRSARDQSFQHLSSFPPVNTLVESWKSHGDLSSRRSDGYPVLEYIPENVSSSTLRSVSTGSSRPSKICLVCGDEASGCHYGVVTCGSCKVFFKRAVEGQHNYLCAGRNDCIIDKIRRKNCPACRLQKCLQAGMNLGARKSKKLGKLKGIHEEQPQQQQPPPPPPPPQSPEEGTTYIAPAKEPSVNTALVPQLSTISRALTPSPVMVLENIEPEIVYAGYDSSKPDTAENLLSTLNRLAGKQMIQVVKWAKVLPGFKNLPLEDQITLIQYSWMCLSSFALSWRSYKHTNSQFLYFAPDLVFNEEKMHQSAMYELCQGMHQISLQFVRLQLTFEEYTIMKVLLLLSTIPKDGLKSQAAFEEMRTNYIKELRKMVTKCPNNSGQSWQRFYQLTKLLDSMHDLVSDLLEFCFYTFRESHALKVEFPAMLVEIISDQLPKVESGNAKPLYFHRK

[4] = target: T4, Progesterone receptor (Homo sapiens) (UniProt P06401); test: Agonist activity at progesterone receptor-LBD expressed in HEK293 cells assessed as Gal4-DBD interaction by cellular mammalian one hybrid assay relative to progesterone
T4 sequence (whole entry): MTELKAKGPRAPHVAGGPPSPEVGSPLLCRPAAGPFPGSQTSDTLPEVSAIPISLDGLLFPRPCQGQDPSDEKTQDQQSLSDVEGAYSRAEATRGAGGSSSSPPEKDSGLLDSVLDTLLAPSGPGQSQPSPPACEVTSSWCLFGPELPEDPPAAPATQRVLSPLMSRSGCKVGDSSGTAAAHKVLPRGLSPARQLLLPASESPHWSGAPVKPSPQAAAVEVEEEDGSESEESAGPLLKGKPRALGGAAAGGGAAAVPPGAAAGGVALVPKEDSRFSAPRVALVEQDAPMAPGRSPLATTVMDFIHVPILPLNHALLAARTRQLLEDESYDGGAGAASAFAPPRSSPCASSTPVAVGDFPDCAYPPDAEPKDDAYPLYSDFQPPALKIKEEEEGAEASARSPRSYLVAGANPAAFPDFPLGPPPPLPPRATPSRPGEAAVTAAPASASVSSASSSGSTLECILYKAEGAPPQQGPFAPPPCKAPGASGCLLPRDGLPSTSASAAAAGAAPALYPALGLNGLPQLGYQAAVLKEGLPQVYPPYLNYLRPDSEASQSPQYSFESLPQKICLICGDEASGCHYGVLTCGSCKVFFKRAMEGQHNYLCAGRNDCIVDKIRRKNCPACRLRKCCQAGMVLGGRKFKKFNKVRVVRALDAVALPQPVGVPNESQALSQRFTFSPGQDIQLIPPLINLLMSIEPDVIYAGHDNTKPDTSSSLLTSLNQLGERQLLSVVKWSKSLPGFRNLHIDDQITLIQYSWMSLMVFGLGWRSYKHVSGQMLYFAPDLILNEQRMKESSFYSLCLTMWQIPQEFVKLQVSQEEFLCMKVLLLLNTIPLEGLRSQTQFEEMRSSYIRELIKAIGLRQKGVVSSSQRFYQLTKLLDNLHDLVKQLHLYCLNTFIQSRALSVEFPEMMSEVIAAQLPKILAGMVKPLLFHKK

EC50 [1] [µM] | EC50 [2] [µM] | EC50 [3] [µM] | Efficacy [4] [%] | SMILES
> 10 | > 10 | > 10 | 0 | CN(Cc1cccc(C(=O)O)c1)c1ccc(OCc2c(-c3c(Cl)cccc3Cl)noc2C2CC2)nc1C(F)(F)F
> 10 | > 10 | > 10 | 0 | CN(Cc1ccc(C(=O)O)cc1)c1ccc(OCc2c(-c3c(Cl)cccc3Cl)noc2C2CC2)nc1C(F)(F)F
> 10 | > 10 | > 10 | 0 | CC(C)c1onc(-c2c(Cl)cccc2Cl)c1COc1ccc(N(C)Cc2ccc(C(=O)O)cc2)c(C(F)(F)F)n1

Source: ChEMBL document CHEMBL1208782, “Synthesis and pharmacological validation of a novel series of non-steroidal FXR agonists” (Bioorg Med Chem Lett, 2010)
